# Measured values taken from article PMC4342272 (Journal of the American Chemical Society, 2015).
# Molecular target: c-Abl (Homo sapiens, UniProt P00519)
# Assay: Dose-response inhibition assay, AbAStide time-resolved Tb3+ luminescence
# Assay type: biochemical
# Sequence of c-Abl (P00519 whole entry): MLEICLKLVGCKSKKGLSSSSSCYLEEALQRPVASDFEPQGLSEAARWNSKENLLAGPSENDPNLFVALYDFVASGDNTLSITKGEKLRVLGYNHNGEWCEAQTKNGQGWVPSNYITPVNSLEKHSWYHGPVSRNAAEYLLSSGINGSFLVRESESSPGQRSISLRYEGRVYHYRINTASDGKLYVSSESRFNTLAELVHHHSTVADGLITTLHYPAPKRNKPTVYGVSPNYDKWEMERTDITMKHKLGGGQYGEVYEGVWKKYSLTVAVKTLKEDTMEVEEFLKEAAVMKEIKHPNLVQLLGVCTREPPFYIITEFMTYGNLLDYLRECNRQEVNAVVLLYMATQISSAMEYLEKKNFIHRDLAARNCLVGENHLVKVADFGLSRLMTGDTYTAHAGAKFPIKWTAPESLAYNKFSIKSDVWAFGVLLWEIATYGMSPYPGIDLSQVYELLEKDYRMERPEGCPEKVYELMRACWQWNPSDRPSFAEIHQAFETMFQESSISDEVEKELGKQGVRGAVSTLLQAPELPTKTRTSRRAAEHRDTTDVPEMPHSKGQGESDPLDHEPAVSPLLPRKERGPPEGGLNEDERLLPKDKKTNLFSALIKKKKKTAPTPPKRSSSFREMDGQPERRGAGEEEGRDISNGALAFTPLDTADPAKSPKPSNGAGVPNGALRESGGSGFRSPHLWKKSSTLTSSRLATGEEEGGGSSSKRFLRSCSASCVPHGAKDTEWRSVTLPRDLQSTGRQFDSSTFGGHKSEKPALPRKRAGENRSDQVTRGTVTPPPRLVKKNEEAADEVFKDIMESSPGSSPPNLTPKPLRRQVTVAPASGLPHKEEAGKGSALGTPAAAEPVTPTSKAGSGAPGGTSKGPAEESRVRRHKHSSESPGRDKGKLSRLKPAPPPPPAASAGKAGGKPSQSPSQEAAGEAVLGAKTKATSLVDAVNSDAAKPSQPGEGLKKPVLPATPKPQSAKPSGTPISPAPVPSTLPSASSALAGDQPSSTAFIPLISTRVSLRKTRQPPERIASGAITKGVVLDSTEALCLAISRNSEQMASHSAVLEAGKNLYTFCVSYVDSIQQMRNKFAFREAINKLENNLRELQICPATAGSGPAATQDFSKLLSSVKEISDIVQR
SMILES,IC50 [nM],"inhibition of Abl in dose-response kinase assay (AbAStide biosensor, negative compounds from HTS)"
COc1cc(C=NNc2ncnc3c2cnn3-c2ccccc2)ccc1O [GW513184X],0.35,
COC(=O)Nc1nc2ccc(Sc3ccc(NC(=O)Nc4cc(C(F)(F)F)ccc4F)cc3)cc2[nH]1 [GW607049C],,no inhibition
COC(=O)Nc1nc2ccc(Oc3ccc(NC(=O)Nc4cc(C(F)(F)F)ccc4F)cc3)cc2s1 [GW693917A],0.52,
c1ccc(-c2n[nH]cc2-c2ccnc(-c3ccc(OCCn4ccnc4)cc3)c2)nc1 [GW711782X],1.91,
